Reference: patent publication US10906899B2, “Bicyclic fused pyrazole derivatives for the treatment of RSV” (GEORGIA STATE UNIVERSITY RESEARCH FOUNDATION, INC., priority 2016, dated 2021)

Each compound was assayed on RSV (assay: Dose-response counterscreen: luciferase reporter virus infection of BEAS-2B cells (EC50)). Conditions: human respiratory syncytial virus, A series compounds, anti-RSV potency, read-out: Potency Range (EC50 values).
Format: cell-based, respiratory syncytial virus (RSV)

| Structure (SMILES) | EC50 [nM] |
| --- | --- |
| COc1ccc(C2CC(=O)Nc3nn(-c4ccccn4)cc32)cc1OC1CCCC1 (stereo not drawn) [AVG-117] | 10000 to 20000 |

Same assay, conditions: human respiratory syncytial virus, B series compounds, read-out: Potency Range (EC50 values)

| Structure (SMILES) | EC50 [nM] |
| --- | --- |
| COc1cccc(Cn2c3cc(=O)n(Cc4cccc(Cl)n4)c(C)c3c(=O)n2-c2nc3ccccc3s2)c1 [AVG-177] | 100 to 1000 |
| Cc1c2c(=O)n(-c3ccco3)n(Cc3ccccc3)c2cc(=O)n1Cc1ccccn1 [AVG-110] | 10000 to 20000 |
| Cc1c2c(=O)n(-c3nc4ccccc4s3)n(CC3CCN(C)CC3)c2cc(=O)n1Cc1ccco1 [AVG-027] | 10000 to 20000 |
| Cc1c2c(=O)n(-c3nc4ccccc4s3)n(Cc3ccccc3)c2cc(=O)n1C(C)c1cccc(Cl)n1 (stereo not drawn) [AVG-170] | 1000 to 10000 |
| Cc1c2c(=O)n(-c3nc4ncccc4s3)n(Cc3ccccc3)c2cc(=O)n1Cc1cccc(Cl)n1 [AVG-195] | 10 to 100 |
| Cc1c2c(=O)n(-c3nc4ccccc4s3)n(Cc3ccccc3)c2cc(=O)n1Cc1ccc(Cl)cn1 [AVG-095] | 1000 to 10000 |
| Cc1c2c(=O)n(-c3nc4ccccc4s3)n(Cc3ccccc3)c2cc(=O)n1Cc1c[nH]cn1 [AVG-099] | 1000 to 10000 |
| Cc1c2c(=O)n(-c3nc4ccccc4s3)n(Cc3ccccc3)c2cc(=O)n1Cc1ncc[nH]1 [AVG-097] | 1000 to 10000 |
| COc1ccc(Cn2c3cc(=O)n(Cc4cccc(OC(C)C)n4)c(C)c3c(=O)n2-c2ccccn2)cc1 [AVG-254] | 100 to 1000 |
| Cc1c2c(=O)n(-c3nc4ccccc4s3)n(Cc3ccccc3)c2cc(=O)n1Cc1nccn1C [AVG-098] | 1000 to 10000 |
| Cc1c2c(=O)n(-c3nc4ccccc4s3)n(Cc3ccccc3)c2cc(=O)n1Cc1cccc(Cl)n1 [AVG-094] | 100 to 1000 |
| Cc1c2c(=O)n(-c3nc4ccccc4s3)n(CC3CCNCC3)c2cc(=O)n1Cc1ccco1 [AVG-026] | 1000 to 10000 |
| Cc1c2c(=O)n(-c3nc4ccccc4s3)n(Cc3ccccc3)c2cc(=O)n1C1CCNCC1 [AVG-041] | 1000 to 10000 |
| Cc1c2c(=O)n(-c3nc4ccccc4s3)n(Cc3ccccc3)c2cc(=O)n1Cc1ccco1 [AVG-021, 2-(benzo[d]thiazol-2-yl)-1-benzyl-5-(furan-2-ylmethyl)-4-methyl-1H-pyrazolo[4,3-c] pyridine-3,6(2H,5H)-dione] | 1000 to 10000 |
| Cc1c2c(=O)n(-c3nc4ccccc4s3)n(Cc3ccccc3)c2cc(=O)n1Cc1cccc(OCCN(C)C)n1 [AVG-206] | 1000 to 10000 |
| COc1ccc(Cn2c(C)c3c(=O)n(-c4ccccn4)n(Cc4ccccc4)c3cc2=O)cc1 [AVG-132] | 1000 to 10000 |
| Cc1c2c(=O)n(-c3ccccn3)n(Cc3ccccc3)c2cc(=O)n1Cc1ccc(Cl)c(Cl)n1 [AVG-172] | 100 to 1000 |
